# Where “and” joins values, the source holds several entries; their conditions need not be identical. Equal values may be shown once. Read-outs that look alike come from different tables or passages of the source. No end group written: not given here.
# Key:
# Purkinje neurons = conditions: ref White et al., 2019, cited from earlier work
# From the text: Next, we investigated if FHF4A, another INaR mediator reported recently ([White et al., 2019]; [Xiao et al., 2022]), shares the receptor site in VGSCs with Navβ4 peptide.
# Nav1.7 N395K = conditions: ref Sheets et al., 2007; cited from earlier work
# From the text: The receptor site of local anesthetics is formed by multiple residues within DIS6, DIIIS6 and DIVS6. […] Several studies have implicated F1764 and Y1771 in Nav1.2 (corresponding to F1737 and Y1744 in Nav1.7) as playing a major effect on local anesthetics-induced inhibition of VGSCs ([Ragsdale et al., 1996]). We recently reported that mutation of an asp ...
# [1] = molecular target: T1, human Nav1.7 R1599P (rpNav1.7) (Homo sapiens, UniProt Q15858, R1610P); assay: Resurgent current (INaR), whole-cell patch clamp, rpNav1.7; type: cell-based
# T1 construct: expressed in transfected cells; host or cells: HEK293 cells, transient transfection with pcDNA3.1 construct
# Method: (§1) HEK293 cells and ND7/23 cells were grown under standard tissue culture conditions (5% CO2 and 37°C) in DMEM supplemented with 10% FBS, 1% penicillin and 1% streptomycin. Using Invitrogen Lipofectamine 2000, human Nav1.7 R1599P (rpNav1.7) and the mutant constructs were transiently co-transfected with Navβ1 and Navβ2 into HEK293 cells. The constructs human Nav1.8 and mutants were transiently co-transfected with FHF2B or FHF4A into ND7/23 cells. The lipofectamine-DNA mixture was added to the cell culture medium and left for 3 h after which the cells were washed with fresh medium. Cells with green fluorescent protein fluorescence were selected for whole-cell patch-clamp recordings 36–72 h after transfection.
# (§2) Whole-cell voltage-clamp recordings were performed at room temperature (~21°C) using an EPC-10 amplifier and the Pulse program (HEKA Electronics). Fire-polished electrodes (0.7–1.0 MΩ) were fabricated from 1.7 mm capillary glass using a P-97 puller (Sutter Instruments), and the tips were coated with sticky wax (KerrLab) to reduce electrode capacitance and enable increased series resistance compensation. The pipette solution contained (in mM) 140 CsF, 1.1 EGTA, 10 NaCl, and 10 HEPES, pH 7.3. The bathing solution was (in mM) 130 mM NaCl, 30 mM TEA chloride, 1 mM MgCl2, 3 mM KCl, 1 mM CaCl2, 10 mM HEPES, and 10 mM d-glucose, pH 7.3 (adjusted with NaOH). […] The offset potential was zeroed before contacting the cell. After establishing the whole-cell recording configuration, the resting potential was held at −120 or −100 mV for 5 min to allow adequate equilibration between the micropipette solution and the cell interior. […]
# (§3) INaR: INaR was elicited by repolarizing voltage steps from +20 to −80 mV for 100 ms (or 200 ms) in −5 mV increments, following a 20-ms depolarizing potential of +30 mV. […] The relative INaR in Nav1.7 and Nav1.8 was calculated by normalizing to the peak transient current elicited at −10 or 0 mV.
# [2] = molecular target: T1, human Nav1.7 R1599P (rpNav1.7); assay: Gating properties (steady-state activation, inactivation, INaP), rpNav1.7; type: cell-based
# Method: as §1, §2
# (§4) Families of sodium currents were induced by 50-ms depolarizing steps to various potentials ranging from −120 (or −100) to +40 mV in 5-mV increments. The conductance was calculated using the equation G(Nav) = I/(V - Vrev) in which I, V, and Vrev represent inward current value, membrane potential, and reversal potential, respectively. […]
# human Nav1.7 = assay: Steady-state activation and inactivation, WT Nav1.7; type: cell-based; conditions: HEK293, 100 μM intracellular, mean ± S.E., scramble n = 6, Navβ4 peptide n = 8
# Method: as §1
# Whole-cell voltage-clamp recordings were performed at room temperature (~21°C) using an EPC-10 amplifier and the Pulse program (HEKA Electronics). […]
# as §4
# human Nav1.8 [3] = assay: INaR, Nav1.8 co-expressed with FHF2B; type: cell-based; conditions: Nav1.8 + FHF2B, ND7/23, 1 mM
# Method: as §1
# (§5) Whole-cell voltage-clamp recordings were performed at room temperature (~21°C) using an EPC-10 amplifier and the Pulse program (HEKA Electronics). Fire-polished electrodes (0.7–1.0 MΩ) were fabricated from 1.7 mm capillary glass using a P-97 puller (Sutter Instruments), and the tips were coated with sticky wax (KerrLab) to reduce electrode capacitance and enable increased series resistance compensation. The pipette solution contained (in mM) 140 CsF, 1.1 EGTA, 10 NaCl, and 10 HEPES, pH 7.3. The bathing solution was (in mM) 130 mM NaCl, 30 mM TEA chloride, 1 mM MgCl2, 3 mM KCl, 1 mM CaCl2, 10 mM HEPES, and 10 mM d-glucose, pH 7.3 (adjusted with NaOH). […] The offset potential was zeroed before contacting the cell. After establishing the whole-cell recording configuration, the resting potential was held at −120 or −100 mV for 5 min to allow adequate equilibration between the micropipette solution and the cell interior. Linear leak subtraction, based on resistance estimates from four to five hyperpolarizing pulses applied before the depolarizing test potential, was used for all voltage clamp recordings. Membrane currents were usually filtered at 5 kHz and sampled at 20 kHz. […] Voltage errors were minimized using 80–95% series resistance compensation, and the capacitance artifact was canceled using the computer-controlled circuitry of the patch clamp amplifier. […] The concentration-dependent curves were fitted to a hill equation: Y = Bottom + (Top-Bottom)/(1 + 10^((LogEC50-X)*HillSlope)).
# as §3
# human Nav1.8 [4] = assay: Gating properties (steady-state activation, inactivation, INaP), Nav1.8; type: cell-based; conditions: Nav1.8 + FHF2B, ND7/23; 1 mM; held at −100 mV; scramble n = 8, FHF4A peptide n = 10; p > 0.05
# Method: as §1, §5
# Families of sodium currents were induced by 50-ms depolarizing steps to various potentials ranging from −120 (or −100) to +40 mV in 5-mV increments. The conductance was calculated using the equation G(Nav) = I/(V - Vrev) in which I, V, and Vrev represent inward current value, membrane potential, and reversal potential, respectively.
# Voltage dependence of steady-state inactivation was estimated using a standard double pulse protocol in which sodium currents were induced by a 50-ms depolarizing potential of 0 mV following a 500-ms prepulse at potentials that ranged from −150 to +10 mV with a 10-mV increment. Currents were plotted as a fraction of the maximum peak current. To obtain the midpoint voltages (V1/2) and slope factor (k), the curves of both steady-state activation and inactivation were fitted to a Boltzmann function.
# [5] = molecular target: T1, human Nav1.7 R1599P (rpNav1.7); assay: Long-term inactivation of rpNav1.7; type: cell-based; conditions: rpNav1.7, HEK293; 1 mM; six 16-ms pulses of −10 mV from −100 mV, 40-ms interpulse; scramble n = 6, FHF4A peptide n = 5; p < 0.0001
# VGSC α-subunits = conditions: heterologous co-expression with VGSC α-subunits; no reference given; cited from earlier work
# From the text: FHF4A could still induce INaR from the F1710K channel (Figure 10A), but the average INaR amplitude at −20 mV is only 2.0% ± 0.2% of the peak transient current, which is less than one-half of the value from WT Nav1.8 (p < 0.0001). ... || The role of Navβ4 in INaR generation remains controversial. […] [Bant and Raman (2010)] reported that siRNA induced knock-down of Navβ4 reduced INaR generation in cultured cerebellar granular neurons by roughly 60%. […] Furthermore, Scn4b knock-out in mice has produced variable effects on INaR. In striatal neurons, Scn4b kno ...
# T1 sequence (Q15858 1-1977 isoform Q15858-3 R1599P): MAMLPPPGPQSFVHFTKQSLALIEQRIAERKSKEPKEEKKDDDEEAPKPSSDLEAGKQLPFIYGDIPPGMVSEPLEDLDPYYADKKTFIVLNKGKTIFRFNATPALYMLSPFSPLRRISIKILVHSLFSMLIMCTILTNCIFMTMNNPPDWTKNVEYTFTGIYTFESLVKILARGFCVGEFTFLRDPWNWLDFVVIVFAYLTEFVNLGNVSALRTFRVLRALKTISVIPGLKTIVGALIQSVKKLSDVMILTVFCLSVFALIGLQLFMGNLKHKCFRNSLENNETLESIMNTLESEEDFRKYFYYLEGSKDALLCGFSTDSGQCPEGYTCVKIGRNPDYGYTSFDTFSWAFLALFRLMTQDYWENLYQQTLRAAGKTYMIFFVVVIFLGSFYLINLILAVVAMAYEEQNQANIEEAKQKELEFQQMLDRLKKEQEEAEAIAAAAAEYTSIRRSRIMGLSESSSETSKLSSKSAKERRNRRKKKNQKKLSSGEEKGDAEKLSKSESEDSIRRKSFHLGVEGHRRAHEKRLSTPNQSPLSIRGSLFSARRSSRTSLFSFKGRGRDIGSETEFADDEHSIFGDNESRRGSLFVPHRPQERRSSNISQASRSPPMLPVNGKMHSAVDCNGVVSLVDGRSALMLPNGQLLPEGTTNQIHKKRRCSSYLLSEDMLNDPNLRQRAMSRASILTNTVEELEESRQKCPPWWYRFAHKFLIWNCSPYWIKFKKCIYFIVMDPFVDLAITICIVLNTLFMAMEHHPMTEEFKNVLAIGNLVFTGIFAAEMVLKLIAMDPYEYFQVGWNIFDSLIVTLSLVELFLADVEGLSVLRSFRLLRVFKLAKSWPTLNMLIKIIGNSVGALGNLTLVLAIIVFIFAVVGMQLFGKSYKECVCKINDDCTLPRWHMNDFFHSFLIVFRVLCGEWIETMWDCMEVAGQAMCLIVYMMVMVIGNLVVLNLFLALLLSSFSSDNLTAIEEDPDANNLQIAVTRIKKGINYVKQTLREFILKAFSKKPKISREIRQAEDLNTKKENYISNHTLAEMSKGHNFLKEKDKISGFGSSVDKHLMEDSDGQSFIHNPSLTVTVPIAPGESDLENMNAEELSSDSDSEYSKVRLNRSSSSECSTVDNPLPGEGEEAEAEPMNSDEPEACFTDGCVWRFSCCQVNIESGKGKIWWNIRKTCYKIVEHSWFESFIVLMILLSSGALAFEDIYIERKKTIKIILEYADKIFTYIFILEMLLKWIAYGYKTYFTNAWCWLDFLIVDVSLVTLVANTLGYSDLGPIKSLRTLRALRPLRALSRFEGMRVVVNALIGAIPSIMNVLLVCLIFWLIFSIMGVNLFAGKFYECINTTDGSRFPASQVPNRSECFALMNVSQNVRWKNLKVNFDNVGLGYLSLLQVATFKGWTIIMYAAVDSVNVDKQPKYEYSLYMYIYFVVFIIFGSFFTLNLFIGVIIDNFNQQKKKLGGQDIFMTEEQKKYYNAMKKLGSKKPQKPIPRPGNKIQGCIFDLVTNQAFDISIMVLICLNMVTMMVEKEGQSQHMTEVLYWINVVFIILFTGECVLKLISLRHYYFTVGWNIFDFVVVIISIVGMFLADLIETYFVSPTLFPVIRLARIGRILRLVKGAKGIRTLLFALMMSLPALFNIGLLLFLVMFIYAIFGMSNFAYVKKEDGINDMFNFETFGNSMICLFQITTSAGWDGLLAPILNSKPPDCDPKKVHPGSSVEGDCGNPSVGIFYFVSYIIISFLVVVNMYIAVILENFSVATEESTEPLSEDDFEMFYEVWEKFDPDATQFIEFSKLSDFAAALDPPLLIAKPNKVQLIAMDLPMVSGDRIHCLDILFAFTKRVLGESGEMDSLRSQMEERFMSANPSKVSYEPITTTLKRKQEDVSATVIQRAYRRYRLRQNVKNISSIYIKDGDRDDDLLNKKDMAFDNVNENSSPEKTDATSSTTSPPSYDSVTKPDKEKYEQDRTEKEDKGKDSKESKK
# T1 sequence (Q07699 19-218 partner): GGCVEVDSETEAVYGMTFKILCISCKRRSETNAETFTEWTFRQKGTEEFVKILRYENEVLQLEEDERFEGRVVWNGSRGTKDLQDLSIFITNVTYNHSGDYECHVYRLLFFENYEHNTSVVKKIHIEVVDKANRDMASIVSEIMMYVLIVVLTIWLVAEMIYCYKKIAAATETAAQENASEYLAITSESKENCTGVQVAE
# T1 sequence (O60939 30-215 partner): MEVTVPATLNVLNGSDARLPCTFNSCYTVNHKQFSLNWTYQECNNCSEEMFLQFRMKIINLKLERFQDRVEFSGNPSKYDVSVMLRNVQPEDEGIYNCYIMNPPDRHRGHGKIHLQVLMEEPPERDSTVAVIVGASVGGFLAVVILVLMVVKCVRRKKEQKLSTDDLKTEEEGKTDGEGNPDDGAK
molecule,measurement,setting,value
"substitution of the 7^th residue leucine with serine: FHF4A K50 – R63 peptide with substitution of the 7th residue leucine with serine (KVRIFGSKKRRLRR; FHF4A peptide K50-R63; UniProt Q92915 50-63, looked up, variant L56S)",INaR in Purkinje neurons,Purkinje neurons,no longer induce INaR
CCN(CC)CC(=O)Nc1c(C)cccc1C [lidocaine],effect of N395K on lidocaine inhibition of Nav1.7,Nav1.7 N395K,attenuates the inhibitory effects of lidocaine on Nav1.7
KKLITFILKKTREK [Navβ4 peptide],average INaR amplitude elicited at −30 mV,"[1]; rpNav1.7 + Navβ1 + Navβ2, HEK293, 100 μM peptide intracellular, measured after 3.0 ms into repolarization, ~21°C, mean ± S.E., n = 14",15.7% ± 1.1%
same,EC50,"[1]; rpNav1.7, HEK293, Hill equation, peptide in intracellular solution (10 μM – 1 mM), each data point from 3 to 14 cells, read-out: EC50 for INaR generation",61.8 ± 1.3 µM
same,"INaP, rpNav1.7","[2]; end of 50-ms pulse of −10 mV, normalized to peak transient current, 100 μM Navβ4 peptide, n = 9",7.1% ± 3.0% and 7.1 ± 3.0 (9) %
"peptide derived from the sequence FHF4A K50 – R63: a peptide derived from the sequence FHF4A K50 – R63 (KVRIFGLKKRRLRR; FHF4A; UniProt Q92915 50-63, looked up, fragment)",INaR in Purkinje neurons,Purkinje neurons,INaR was also reconstituted in Purkinje neurons
same,INaR in Purkinje neurons,Purkinje neurons; listed as short peptide derived from this segment,induce robust Nav1.6 INaR in Purkinje neurons
"KAREAQRASRAIEQLRSAKI [scrambled peptide, scrambled control peptide]",INaR elicited with scrambled peptide,"[1]; Nav1.7 and rpNav1.7 (Figures 1A,B), HEK293, 100 μM intracellular",no INaR was elicited
same,"Inactivation (V1/2), rpNav1.7","[2]; HEK293, 100 μM intracellular, mean ± S.E., scramble n = 5, Navβ4 peptide n = 9, p < 0.05",−75.0 ± 1.5 mV
same,"Activation (V1/2), rpNav1.7","[2]; HEK293, 100 μM intracellular, mean ± S.E., scramble n = 6, Navβ4 peptide n = 9, p < 0.01",−27.0 ± 1.9 mV
same,"V1/2(activation), WT Nav1.7",human Nav1.7; p < 0.01,−29.3 ± 1.6 mV
same,"V1/2(inactivation), WT Nav1.7",human Nav1.7; p < 0.05,−79.7 ± 1.7 mV
same,"INaR with scrambled peptide, Nav1.8",human Nav1.8 [3],failed to produce INaR
same,"V1/2 (activation), Nav1.8, Figure 6",human Nav1.8 [4],−10.0 ± 2.4 mV
same,"V1/2 (inactivation), Nav1.8, Figure 6",human Nav1.8 [4],−44.5 ± 2.1 mV
same,fraction of the current elicited at the 6th pulse,[5],0.87 ± 0.08
"full-length Navβ4: full-length Navβ4 sodium channel auxiliary subunit (protein, UniProt Q8IWT1 1-228, looked up, full-length, full-length Navβ4 sodium channel auxiliary subunit) MPGAGDGGKAPARWLGTGLLGLFLLPVTLSLEVSVGKATDIYAVNGTEILLPCTFSSCFGFEDLHFRWTYNSSDAFKILIEGTVKNEKSDPKVTLKDDDRITLVGSTKEKMNNISIVLRDLEFSDTGKYTCHVKNPKENNLQHHATIFLQVVDRLEEVDNTVTLIILAVVGGVIGLLILILLIKKLIIFILKKTREKKKECLVSSSGNDNTENGLPGSKAEEKPPSKV",INaR with full-length Navβ4,VGSC α-subunits,fails to reconstitute INaR in heterologous systems
